Measurements taken from patent publication US8846682B2, “Compound suitable for the treatment of synucleopathies” (Neuropore Therapies, Inc., priority 2009, dated 2014).

What was measured:
[1] = tested on: neuronal cells infected with LV-SYN; assay: neurite outgrowth (MAP2 antibody) in neuronal cells expressing high levels of SYN; assay type: cell-based; details: 0.1 μM; FIG. 6
Procedure: For the neuronal cell based assays, the neuroblastoma line B103 will be used. […] To infect the neural cells with LV vectors, multiples of infections (MOI) of 0.1, 1 or 5 (based on TU/ml on 293T cells) will be used. After 4-5 days in vitro, the % of transgene-expressing cells will be analyzed. The B103 cells will be maintained at 37° C., 5% CO2 in Dulbecco's modified eagle medium (DMEM, high glucose) supplemented with 10% fetal bovine serum (Irvine Scientific, Irvine, Calif.) and 1% v/v penicillin/streptomycin. For analysis of SYN aggregation cell homogenates will be analyzed by immunoblot with antibodies against SYN and in coverslips by immunocytochemistry. For evaluation of neurite outgrowth coverslips will be immunostained with an antibody against MAP2 and analyzed with a digital Olympus microscope and the Image Quant System.

[2] = tested on: neuronal cells infected with LV-SYN; assay: FLIPR assay of Ca++ levels (Flou-4) in neuronal cells infected with LV-SYN; assay type: cell-based

Question: What does the source list for `CCCCNC(=O)C(Cc1c[nH]c2ccccc12)NC(=O)c1cnc(N2CCNCC2)s1` (stereo not drawn) [NPT200-5]?
Answer: effect on neurite length extension and cellular morphology [1]: ameliorated the deleterious effects on neurite length extension and improved cellular morphology; improvement of Ca++ levels ([2]; 0.1 μM concentration): 50%; levels of Ca++ after treatment ([2]; 24 hrs treatment, LV-SYN cells showed 25-30% higher Ca++ than empty vector control, FIG. 7): back to baseline
